We go through 15 compounds from patent US7989628B2, “2-aminoquinolines” (Hoffmann-La Roche Inc., priority 2008, dated 2011).

In data set [1] the target is T1, recombinant human 5-HT5A receptor (Homo sapiens, UniProt P47898).
T1 construct: expressed in transfected cells; host or cells: HEK-EBNA (Human Embryonic Kidney-EBNA) cells, transient cDNA expression; membranes
As to the kind of experiment: [3H]LSD radioligand binding assay. Particulars: [3H]LSD approx. 1 nM; membranes from HEK-EBNA cells transiently expressing 5-HT5A; Ki by Cheng-Prussoff equation. The method, then: A [^3H]LSD radioligand binding assay was used to determine the affinity of the compounds for the recombinant human 5-HT5A receptor, in membranes from transiently (cDNA) expressed 5-HT5A receptors in Human Embryonic Kidney-EBNA (HEK-EBNA) cells. Assay buffer consisted of Tris (50 mM) buffer containing 1 mM EGTA, 10 mM MgCl2 (pH 7.4) and 10 μM pargyline. The binding assay was carried out in 96-well-plates in the presence of [^3H]LSD (approximately 1 nM), approximately 2 μg/well of membrane protein, and 0.5 mg of Ysi-poly-1-lysine SPA beads in a final volume of 200 μl of buffer. Non-specific binding was defined using methiothepin 2 μM. Compounds were tested at 10 concentrations. All assays were conducted in duplicate and repeated at least two times. Assay plates were incubated for 120 min at room temperature before centrifugation. Bound ligand was determined using a Packard Topcount scintillation counter. IC50 values were calculated using a non-linear curve fitting program and Ki values calculated using the Cheng-Prussoff equation.

T1 sequence (P47898 whole entry): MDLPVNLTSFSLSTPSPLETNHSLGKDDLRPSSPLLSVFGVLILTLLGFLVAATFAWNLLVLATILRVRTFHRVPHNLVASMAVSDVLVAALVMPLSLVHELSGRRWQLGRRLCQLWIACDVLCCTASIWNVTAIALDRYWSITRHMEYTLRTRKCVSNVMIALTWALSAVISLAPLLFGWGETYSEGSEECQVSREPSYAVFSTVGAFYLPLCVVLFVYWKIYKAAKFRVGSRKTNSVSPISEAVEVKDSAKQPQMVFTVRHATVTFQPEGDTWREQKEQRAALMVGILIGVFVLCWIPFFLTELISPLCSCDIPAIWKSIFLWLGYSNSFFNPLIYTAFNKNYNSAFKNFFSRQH

For orientation: Ki means a measure of affinity in units of concentration, obtained from inhibition or displacement. As to `Cc1ccc(CNc2ccc3c(NS(=O)(=O)N(C)C)cccc3n2)o1` [Example 20, N,N-dimethyl-N′-(2-{[(5-methyl-2-furyl)methyl]amino}quinolin-5-yl)sulfamide], the Ki in data set [1] is 60.4 nM.
What is called melting point is the temperature of the solid-liquid transition. For `COc1ccccc1CNc1ccc2c(C(=N)NO)cccc2n1` [Example 32, N-Hydroxy-2-(2-methoxy-benzylamino)-quinoline-5-carboxamidine], the melting point is 161 °C. The Ki in data set [1] came out at 44.7 nM.
In the case of `CC1Cc2cccc(Nc3ccc4c(NS(=O)(=O)N(C)C)cccc4n3)c2O1` (stereo not shown) [Example 21, N,N-dimethyl-N′-{2-[(2-methyl-2,3-dihydro-1-benzofuran-7-yl)amino]quinolin-5-yl}sulfamide], the Ki in data set [1] was 101 nM.
For `Cc1ccc(CNc2ccc3c(CCCCO)cccc3n2)o1` [Example 26, 4-{2-[(5-Methyl-furan-2-ylmethyl)-amino]-quinolin-5-yl}-butan-1-ol], the Ki in data set [1] amounted to 61.8 nM.
Same read-out and setting: in the case of `CSCCNc1cccc2nc(NCc3ccc(C)o3)ccc12` [Example 9, N^2-(5-Methyl-furan-2-ylmethyl)-N^5-(2-methylsulfanyl-ethyl)-quinoline-2,5-diamine] it was 81.2 nM; in that of `COc1ccccc1CNc1ccc2c(OCCSC)cccc2n1` [Example 30, (2-Methoxy-benzyl)-[5-(2-methylsulfanyl-ethoxy)-quinolin-2-yl]-amine], 219 nM.
Consider `Nc1cccc2nc(Nc3cccc(C4CC4)c3)ccc12` [Example 18, N^2-(3-Cyclopropyl-phenyl)-quinoline-2,5-diamine], for which the Ki in data set [1] stood at 71.2 nM.
With `Cc1ccc(CNc2ccc3c(NC4CCOCC4)cccc3n2)o1` [Example 7, N^2-(5-Methyl-furan-2-ylmethyl)-N^5-(tetrahydro-pyran-4-yl)-quinoline-2,5-diamine], the Ki in data set [1] turned out to be 92 nM.
As for `CC1(C)Cc2cccc(Nc3ccc4c(N)cccc4n3)c2O1` [Example 16, N^2-(2,2-Dimethyl-2,3-dihydro-benzofuran-7-yl)-quinoline-2,5-diamine], the Ki in data set [1] came out at 44.4 nM.
`COc1ccccc1CNc1ccc2c(N)cccc2n1` [Example 1, N^2-(2-Methoxy-benzyl)-quinoline-2,5-diamine]: the Ki in data set [1] was found to be 27.3 nM.
In the case of `Nc1cccc2nc(NCc3ccccc3OC(F)(F)F)ccc12` [Example 13, N^2-(2-Trifluoromethoxy-benzyl)-quinoline-2,5-diamine], in data set [1], the Ki is 93.9 nM.
On to `Cc1ccc(CNc2ccc3c(NCC[S+](C)[O-])cccc3n2)o1` (stereo not shown) [Example 10, N^5-(2-Methanesulfinyl-ethyl)-N^2-(5-methyl-furan-2-ylmethyl)-quinoline-2,5-diamine], for which the Ki in data set [1] turned out to be 99.3 nM.
Take `Cc1cc2cccc(Nc3ccc4c(N)cccc4n3)c2o1` [Example 14, N^2-(2-Methyl-benzofuran-7-yl)-quinoline-2,5-diamine]: the Ki in data set [1] amounted to 112 nM.
`Cc1ccc(CNc2ccc3c(N)cccc3n2)o1` [Example 2, N^2-(5-Methyl-furan-2-ylmethyl)-quinoline-2,5-diamine]: the Ki in data set [1] is 83.8 nM.
As for `CC1Cc2cccc(Nc3ccc4c(N)cccc4n3)c2O1` (stereo not shown) [Example 15, N^2-(2-Methyl-2,3-dihydro-benzofuran-7-yl)-quinoline-2,5-diamine], the Ki in data set [1] was found to be 49.4 nM.
